Where two headings read alike, the source gives them in different places. Blank lines part the entries; values can stand above or below the compound they belong to.
Key:
L1210 leukemia = L1210 leukemia in mice, increase in life span (Table 2); format: in vivo; conditions: Mus musculus, L1210, 192 h, read-out: ILS, average percent (± standard error) increase in life span; for ILS at 200 mg/kg: 200 mg/kg daily for 8 days; for ILS at 500 mg/kg: 500 mg/kg daily for 8 days
Source text: As stated above, the compounds represented by formula I above have the ability to inhibit ribonucleotide reductase, an enzyme involved in the reductive conversion of ribonucleotides to deoxyribonucleotides. This enzymatic reaction is a rate controlling step in the biosynthetic pathway leading to DNA and cell replication. In general, the ribonucleotide reductase level is closely correlated with cellular replication.
(§1) Table 2 gives ribonucleotide reductase data for certain compounds of formula I. In the table, column 1 gives the substitution pattern in the benzene ring, column 2, the R^1 group, column 3, the ID50 (inhibitory dose in micromolar concentration which inhibits ribonucleotide reductase by 50%), column 4, the average percent (± standard error) increase in the life span (ILS) of 8 treated mice inoculated with L1210 leukemia compared with 8 control mice also inoculated with L1210. The daily dose level of the drug which was administered for 8 days is indicated in column 5. Table 3 gives the relative potency of the compounds represented by formula I above as inhibitors of ribonucleotide reductase compared to hydroxyurea whose potency was given an arbitrary value of 1.0. In table 3, column 1 gives the name of the compound and column 2 the relative inhibitory potency of each of the compounds of column 1.

ribonucleotide reductase = biological target: T1, ribonucleotide reductase (Rattus norvegicus, UniProt Q4KLN6); assay: Inhibition of ribonucleotide reductase (conversion of CDP to dCDP), enzyme partially purified from Novikoff hepatoma; format: biochemical; conditions: for IC50: CDP to dCDP, 40 min at 30° C, pH 7.5, enzyme from Novikoff hepatoma, read-out: ID50 (inhibitory dose which inhibits ribonucleotide reductase by 50%); for Inhibitory Potency for ribonucleotide reductase: relative to hydroxyurea, given an arbitrary value of 1.0
T1 construct: partially purified from Novikoff hepatoma; from tissue; host or cells: Novikoff hepatoma (rat tumour), partially purified enzyme
T1 sequence (Q4KLN6 1-390): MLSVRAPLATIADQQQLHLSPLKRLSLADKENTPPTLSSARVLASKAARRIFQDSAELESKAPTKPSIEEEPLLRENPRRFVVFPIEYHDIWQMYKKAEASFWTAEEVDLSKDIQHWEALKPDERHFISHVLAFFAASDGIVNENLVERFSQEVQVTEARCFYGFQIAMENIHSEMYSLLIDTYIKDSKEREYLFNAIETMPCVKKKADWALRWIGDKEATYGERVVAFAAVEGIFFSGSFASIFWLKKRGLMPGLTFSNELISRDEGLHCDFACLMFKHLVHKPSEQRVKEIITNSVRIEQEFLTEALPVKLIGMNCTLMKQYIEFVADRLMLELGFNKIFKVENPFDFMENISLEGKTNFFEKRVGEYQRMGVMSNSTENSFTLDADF
Source text: as §1
In the above determination of ID50 's in Table 3, ribonucleotide reductase is partially purified from Novikoff hepatoma by a procedure similar to that set forth by Elford et al. J. Biol. Chem. 245, 5228 (1970). The activity of the enzyme was measured by a slightly modified assay procedure originally developed by Reichard et al. id, 236, 1150 […]. This procedure measures the conversion of CDP to dCDP. The assay mixture (0.34 ml.) contains 3 μCi of [^3 H] CDP (specific activity […]), 3.3 μmole ATP, 5.9 μmoles magnesium chloride, 8.8 μmoles Hepes buffer at pH=7.5, 15 μmoles dithiothreitol and enzyme protein between 0.4 and 1.3 mg. Incubation was provided for forty minutes at 30° C. Ion exchange chromatography employing Dowex 50 (H^+) resin is used to separate the product from the substrate. The inhibitors were dissolved in water and a mixture of water and up to 1 % ethanol or 2% dimethylsulfoxide, neither one of which inhibited the enzyme at these concentrations. Each inhibitor was tested at a minimum of three concentrations and the active compounds reassayed at least one additional time. ID50 's in μmoles were estimated from graphs summarizing results for each compound.

CA-755 adenocarcinoma = assay: Activity vs. CA-755 adenocarcinoma (Table 7); format: in vivo, mice; conditions: once or twice daily for 9-10 days
Method: (§2) All compounds were administered once or twice daily for 9-10 days starting 24 hours after inoculation with the tumor.

L-1210 Leukemia [1] = format: in vivo, mice
Method: In a series of studies against L-1210 leukemia, in addition to those studies set forth in Table 2 and 4, 3,4-dihydroxybenzohydroxamic acid gave the following increases in survival times at the dose levels specified. Drug was administered daily for nine days.
Similar data for 3,4,5-trihydroxybenzohydroxamic acid are as follows: […]

L-1210 Leukemia [2] = format: in vivo, mice; conditions: once or twice daily for 9-10 days
Method: as §2

Lewis Lung = assay: Activity vs. Lewis Lung (Table 5); format: in vivo, mice; conditions: once or twice daily for 9-10 days
Method: as §2

L-5563 lymphoma = assay: Activity vs. L-5563 lymphoma (Table 6); conditions: once or twice daily for 9-10 days
Method: as §2

L-1210 Leukemia [3] = format: in vivo, mice; remark: listed apart in the source
Source text: The above data clearly show the enhanced anti-tumor activity of trihydroxybenzohydroxamic acid where the hydroxy groups are vicinal but no hydroxyl is ortho. Similar data are available for the vicinal dihydroxybenzohydroxamic acids with and without an ortho-hydroxy substituent in an L-1210 leukemic test in mice as follows: […]

[4] = Biochemical Pharmacology 1971; cited from earlier work
L-1210 Leukemia [5] = assay: Direct side-by-side comparison with L-1210 leukemia; format: in vivo, mice
Source text: In a direct side-by-side comparison with L-1210 leukemia, the following results were obtained.

[6] = system: DNA synthesis in Ehrlich ascites tumor cells; conditions: cited from earlier work; for inhibition of / selectivity against DNA synthesis (in words) / selectivity against DNA synthesis (in words): Gale and Hynes 1968; for inhibition of / selectivity against DNA synthesis (in words): in vitro; for selectivity against DNA synthesis (in words): only after exposure of the cells for 1-2 hours
P388 Leukemia = assay: Activity vs. P388 Leukemia (Table 8); format: in vivo, mice; conditions: once or twice daily for 9-10 days
Method: as §2

- IC50 (ribonucleotide reductase): 5 µM
- Inhibitory Potency for ribonucleotide reductase (ribonucleotide reductase): 100
Structure (SMILES): NC(=O)c1ccc(O)c(O)c1O [2,3,4-trihydroxybenzamide]
- ILS at 200 mg/kg (L1210 leukemia): 48 ± 7%

Structure (SMILES): O=C(NO)c1ccc(O)c(O)c1O [2,3,4-trihydroxybenzohydroxamic acid]
- % inhibition (CA-755 adenocarcinoma; 25-50 mg/kg): 12-18%
- % increase in survival (L-1210 Leukemia [1]; 25 mg/kg daily for nine days): 10%
- % increase in survival (L-1210 Leukemia [1]; 50 mg/kg daily for nine days): 8%
- % increase in survival (L-1210 Leukemia [1]; 100 mg/kg daily for nine days): 16%
- % increase in survival time (L-1210 Leukemia [2]; 25-50 mg/kg): 17-21%
- ILS at 125 mg/kg (L1210 leukemia; 125 mg/kg daily for 8 days): 30 ± 7%
- IC50 (ribonucleotide reductase): 3.5 µM
- Inhibitory Potency for ribonucleotide reductase (ribonucleotide reductase): 140
- % tumor inhibition (Lewis Lung; 25-50 mg/kg): 13-14%
- toxic (in column % inhibition) (L-5563 lymphoma; 25-50 mg/kg): toxic

Structure (SMILES): O=C(NO)c1cccc(O)c1O [2,3-dihydroxybenzohydroxamic acid]
- % increase in survival time (L-1210 Leukemia [3]; 300 mg/kg): about 0%
- % increase in survival time (L-1210 Leukemia [3]; 450 mg/kg): about 0%
- antimitogenic activity (in words) [4]: most active compounds tested
- ILS at 200 mg/kg (L1210 leukemia): 36 ± 11%
- % increase in survival time (L-1210 Leukemia [5]; 125 mg/kg): 0%
- % increase in survival time (L-1210 Leukemia [5]; 250 mg/kg): 16%
- IC50 (ribonucleotide reductase): 8 µM
- Inhibitory Potency for ribonucleotide reductase (ribonucleotide reductase): 63
- inhibition of / selectivity against DNA synthesis (in words) [6]: marked selectivity against DNA synthesis with a greater inhibition than that produced by salicylhydroxamic acid

- IC50 (ribonucleotide reductase): 250 µM
- Inhibitory Potency for ribonucleotide reductase (ribonucleotide reductase): 2.0
Structure (SMILES): O=C(NO)c1ccc(O)cc1O [2,4-dihydroxybenzohydroxamic acid]
- ILS at 500 mg/kg (L1210 leukemia): 42 ± 7%

- IC50 (ribonucleotide reductase): 200 µM
- Inhibitory Potency for ribonucleotide reductase (ribonucleotide reductase): 2.5
Structure (SMILES): O=C(NO)c1cc(O)ccc1O [2,5-dihydroxybenzohydroxamic acid]
- ILS at 300 mg/kg (L1210 leukemia; 300 mg/kg daily for 8 days): 30 ± 14%

- IC50 (ribonucleotide reductase): 100 µM
- Inhibitory Potency for ribonucleotide reductase (ribonucleotide reductase): 5.0
Structure (SMILES): O=C(NO)c1c(O)cccc1O [2,6-dihydroxybenzohydroxamic acid]
- ILS at 88 mg/kg (L1210 leukemia; 88 mg/kg daily for 8 days): 23 ± 11%

Structure (SMILES): Nc1ccc(C(=O)NO)c(O)c1 [2-hydroxy-4-aminobenzoyl compound]
- antimitogenic activity (in words) [4]: inactive

- IC50 (ribonucleotide reductase): 25 µM
Structure (SMILES): CNC(=O)c1cc(O)c(O)c(O)c1 [3,4,5 NHCH3]
- ILS at 500 mg/kg (L1210 leukemia): 60 ± 29%

Structure (SMILES): NC(=O)c1cc(O)c(O)c(O)c1 [3,4,5-trihydroxybenzamide]
- % inhibition (CA-755 adenocarcinoma; 200 mg/kg): 38%
- % Prolongation (P388 Leukemia; 175 mg/kg): 43%
- % Prolongation (P388 Leukemia; 200 mg/kg): 40%
- % Prolongation (P388 Leukemia; 225 mg/kg): 55%
- % increase in survival time (L-1210 Leukemia [2]; 150 mg/kg): 50%
- % increase in survival time (L-1210 Leukemia [2]; 175 mg/kg): 55%
- % increase in survival time (L-1210 Leukemia [2]; 225 mg/kg): 10%
- ILS at 250 mg/kg (L1210 leukemia; 250 mg/kg daily for 8 days): 42 ± 5%
- IC50 (ribonucleotide reductase): 10 µM
- Inhibitory Potency for ribonucleotide reductase (ribonucleotide reductase): 50
- % tumor inhibition (Lewis Lung; 200 mg/kg): 21%
- toxic (in column % inhibition) (L-5563 lymphoma; 200 mg/kg): toxic

- IC50 (ribonucleotide reductase): 50 µM
- Inhibitory Potency for ribonucleotide reductase (ribonucleotide reductase): 10
Structure (SMILES): NC(=O)c1ccc(O)c(O)c1 [3,4-dihydroxybenzamide]
- ILS at 1200 mg/kg (L1210 leukemia; 1200 mg/kg daily for 8 days): 35 ± 11%

Structure (SMILES): O=C(Cc1ccc(O)c(O)c1)NO [3,4-dihydroxyphenylacetohydroxamic acid]
- % increase in survival time (L-1210 Leukemia [2]; 606 mg/kg): 57%

Structure (SMILES): Nc1cc(N)cc(C(=O)NO)c1 [3,5-Diaminobenzohydroxamic acid]
- selectivity against DNA synthesis (in words) [6]: relative selectivity against DNA synthesis

- IC50 (ribonucleotide reductase): 400 µM
- Inhibitory Potency for ribonucleotide reductase (ribonucleotide reductase): 1.2
Structure (SMILES): O=C(NO)c1cc(O)cc(O)c1 [3,5-dihydroxybenzohydroxamic acid]
- ILS at 1000 mg/kg (L1210 leukemia; 1000 mg/kg daily for 8 days): 52 ± 22%

Structure (SMILES): CC(C)c1cc(C(=O)NO)c(O)c(C(C)C)c1 [3,5-diisopropylsalicylhydroxamic acid]
- inhibition of DNA synthesis, rank in words ([6]; Gale, Hynes and Smith 1970): most active compound

Structure (SMILES): Nc1ccc(C(=O)NO)cc1 [4-aminobenzohydroxamic acid]
- antimitogenic activity (in words) [4]: inactive
- selectivity against DNA synthesis (in words) [6]: relative selectivity against DNA synthesis

Structure (SMILES): NC(=O)c1ccccc1 [benzamide]
- inhibition of / selectivity against DNA synthesis (in words) [6]: totally inactive

Structure (SMILES): NC(=O)NO [hydroxyurea, reference compound]
- % inhibition (CA-755 adenocarcinoma; 71 mg/kg): 27%
- % inhibition (CA-755 adenocarcinoma; 200 mg/kg): 26%
- % increase in survival time (L-1210 Leukemia [2]; 30 mg/kg): 27%
- % increase in survival time (L-1210 Leukemia [2]; 40 mg/kg): 27%
- % increase in survival time (L-1210 Leukemia [2]; 60 mg/kg): 92%
- % increase in survival time (L-1210 Leukemia [2]; 71 mg/kg): 58%
- % tumor inhibition (Lewis Lung; 71 mg/kg): 27%
- % tumor inhibition (Lewis Lung; 400 mg/kg): 44%

Structure (SMILES): O=C(Oc1ccccc1)c1cc(O)c(O)c(O)c1 [phenyl 3,4,5-trihydroxybenzoate]
- % inhibition (CA-755 adenocarcinoma; 100 mg/kg): 27%
- % inhibition (CA-755 adenocarcinoma; 200 mg/kg): 11%
- % increase in survival time (L-1210 Leukemia [2]; 200 mg/kg): 56%
- Inhibitory Potency for ribonucleotide reductase (ribonucleotide reductase): 33
- % tumor inhibition (Lewis Lung; 50 mg/kg): 2%
- % tumor inhibition (Lewis Lung; 200 mg/kg): 14%
- % inhibition (L-5563 lymphoma; 200 mg/kg): 19%
